Test results: patent publication US9487551B2, “Small molecule compounds that control mammal-pathogenic nematodes” (California Institute of Technology, priority 2011, dated 2016)
Marks after values point to notes of the source that are not given here.

Key:
S. feltiae IJs = test: Dispersal assay; type: in vivo
Description: S. feltiae IJs were washed with MILLI-Q water three times and incubated in 6 cm petri dishes for […] with a small amount (4-5 ml) of MILLI-Q water. Nematodes were placed the following day on a 10.7 g/L agar with 1010 g/cm^2 gel strength (PhytoTechnology Lab. Shawnee Mission, Kans.). Nematode behavior was assayed on multiple plates with internal plate replicates to rule out the possibility that behavior was affected by plate composition. Approximately 300 IJs in 10 μl water were placed on an agar medium and the test compounds or extracts (1-2 μl) were placed into the nematode suspension. Upon absorption (˜15 minutes) of the liquid, the freely moving nematodes were video recorded for 5-10 minutes. Dispersal behavior is temperature and season dependent. During winter, the assay is effective at room temperature (22±1° C.). During summer, the assay requires a temperature controlled environment due to the effects on nematode behavior above 23° C.
Activity-guided fractionation was conducted as reported in Srinivasan et al., Nature 454:1115-18 (2008), which is hereby incorporated by reference in its entirety, with modifications. A total of 33 insect host cadavers (G. mellonella larvae) were placed into 70% EtOH and stored at −20° C. until extraction. […]

[1] = tested on: Several of the tested nematode species; test: Retention assay; type: in vivo; conditions: 1 nM, 1 μM and 1 mM tested
Summary of the method: (§1)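 Sex-separated young adults (isolated at L4) placed equidistant from two 0.6 μL spots (cue vs control) on opposite sides of an E. coli OP50 lawn on NGM; 10 P. redivivus, 14 S. glaseri or 20 C. elegans males per trial. Video recorded 20 min at 1 frame/s; worm-pixel occupancy per region scored as adapted Chemotaxis Index, ≥3 trials averaged.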

C. elegans = test: Ascaroside function (Table 12); type: in vivo, Caenorhabditis elegans; conditions: listed = has this function
Summary of the method: (§2)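 Nematodes are exposed to single ascarosides or mixtures of them. Changes in behavior are then graded, and the label "strong" is reserved for a very strong effect.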

Panagrellus redivivus = test: Ascaroside function (Table 12); type: in vivo; conditions: listed = has this function
Summary of the method: as §2

[2] = tested on: Meloidogyne javanica, M. floridensis, M. incognita, M. hapla; test: Ascaroside function (Table 12); type: in vivo, Meloidogyne spp.
Description: (§3) Ascarosides ascr#10, ascr#16, ascr#18, ascr#20, and ascr#22 were detected in certain species of Meloidogyne plant parasitic nematodes (FIG. 83) and identified using high-resolution mass spectrometry (FIGS. 84-88).
(§4) Various ascarosides and ascaroside blends were administered to various nematodes described below (Table 12). […] A very strong result of affecting nematode behavior is designated in the table as “strong.”

[3] = tested on: Steinernema riobrave, S. diaprepesi, S carpocapse; test: Ascaroside function (Table 12); type: in vivo, Steinernema spp.; conditions: listed = has this function
Description: as §4

S. feltiae = test: Ascaroside function (Table 12); type: in vivo, Steinernema feltiae; conditions: listed = has this function
Description: as §4

[4] = tested on: Heterorhabditis bacteriophora, H. zealandica, H. floridensis; test: Ascaroside function (Table 12); type: in vivo, Heterorhabditis spp.; conditions: entries without asterisk
Description: as §3, §4

C. elegans males = test: Retention assay; type: in vivo
Summary of the method: as §1

[5] = tested on: P. redivivus males and females; test: Retention assay; type: in vivo; conditions: only this concentration
Summary of the method: as §1

S. glaseri males = test: Retention assay; type: in vivo; conditions: only this concentration
Summary of the method: as §1

S. glaseri = test: Ascaroside function (Table 12); type: in vivo; conditions: listed = has this function
Summary of the method: as §2

[6] = entries with asterisk (predicted)

Row | SMILES | dispersal activity in combination with fractions B and C (S. feltiae IJs; ascr#9 40 pmol/μl, ascr#11 1.3 pmol/μL) | dispersal behavior of S. feltiae IJs (S. feltiae IJs; tested alone, physiologically relevant concentration) | preference for ascaroside-conditioned areas [1] | Attract Males (C. elegans) | Attract Males (Panagrellus redivivus) | Dispersal (of dauer larvae, infectious juveniles) ([2]; entries without asterisk) | Repel Females/Herm. ([2]; entries without asterisk) | Dispersal (of dauer larvae, infectious juveniles) [3] | Dispersal (of dauer larvae, infectious juveniles) (S. feltiae) | Dispersal (of dauer larvae, infectious juveniles) [4] | concentration of conditioned regions preferred (C. elegans males) [µM] | concentration of conditioned regions preferred [5] [mM] | concentration of conditioned regions preferred (S. glaseri males) [mM] | Attract Males (S. glaseri) | predicted function in Meloidogyne species ([2]; alone, in concert, and/or in concert with ascr#9 or other ascarosides) | Dispersal (of dauer larvae, infectious juveniles) [2, 6] | Repel Females/Herm. [2, 6]
1 | C[C@H](CCC(=O)O)O[C@@H]1O[C@@H](C)[C@H](O)C[C@H]1O [ascr#9] | restored the original dispersal activity | did not have activity by themselves | preferred areas conditioned | ascr#9 | ascr#9 | ascr#9 | ascr#9 | ascr#9 | ascr#9 | ascr#9 |  |  |  |  |  |  | 
2 | CC1O[C@@H](O[C@H](C)CCCCCCC(=O)O)C(O)C[C@H]1O (some centres unmarked) [ascr#10] |  |  | preferred areas conditioned | ascr#10 | ascr#10 |  |  |  |  |  | 1 | 1 | 1 | ascr#10 | act as dispersants and repellants | ascr#10* | ascr#10*
